Measurements taken from ChEMBL document CHEMBL1201862, “PubChem BioAssay data set” (2004).
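Briefly, cells in 96-well plates were exposed to five compound concentrations for 48 h, and endpoints were estimated by linear interpolation. Abbreviation: GI50, concentration required for 50% inhibition of growth.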 Active and inactive are the calls of the source. Rule as the data show it: active = GI50 up to about 1.1 µM and inactive = higher.

Key:
Assay in all cases: inhibition of tumour cell growth, NCI panel, 48 h
SNB-19 = test system: SNB-19
NCI-H460 = test system: NCI-H460
KM-20L2 = test system: KM-20L2
NCI-H23 = test system: NCI-H23
OVCAR-4 = test system: OVCAR-4
DU-145 = test system: DU-145
ACHN = test system: ACHN
T47D = test system: T47D
UACC-62 = test system: UACC-62
NCI-H522 = test system: NCI-H522
NCI/ADR-RES = test system: NCI/ADR-RES
MDA-MB-435 = test system: MDA-MB-435
IGROV-1 = test system: IGROV-1
HCT-116 = test system: HCT-116
UO-31 = test system: UO-31
OVCAR-5 = test system: OVCAR-5
U-251 = test system: U-251
K562 = test system: K562
CAKI-1 = test system: CAKI-1
HT-29 = test system: HT-29

Structure (SMILES)	GI50 (SNB-19)	GI50 (NCI-H460)	GI50 (KM-20L2)	GI50 (NCI-H23)	GI50 (OVCAR-4)	GI50 (DU-145)	GI50 (ACHN)	GI50 (T47D)	GI50 (UACC-62)	GI50 (NCI-H522)	GI50 (NCI/ADR-RES)	GI50 (MDA-MB-435)	GI50 (IGROV-1)	GI50 (HCT-116)	GI50 (UO-31)	GI50 (OVCAR-5)	GI50 (U-251)	GI50 (K562)	GI50 (CAKI-1)	GI50 (HT-29)
OCC1OC(n2cnc3c2NC=NC[C@H]3O)CC1O (some centres not stated)	479 µM (inactive)	418 µM (inactive)	> 500 µM (inactive)	486 µM (inactive)	470 µM (inactive)	324000 nM (inactive)	400 µM (inactive)	258 µM (inactive)	415 µM (inactive)	444 µM (inactive)	462000 nM (inactive)	> 500000 nM (inactive)	450 µM (inactive)	483 µM (inactive)	460 µM (inactive)	> 500 µM (inactive)	480 µM (inactive)	469 µM (inactive)		
COc1cccc2c1C(=O)c1c(O)c3c(c(O)c1C2=O)C[C@@](O)(C(=O)CO)C[C@@H]3OC1CC(N2CCOCC2C#N)C(O)C(C)O1 (some centres not stated)	3.52e-05 µM (active)	8.17e-06 µM (active)	0.0025 µM (active)	2.45e-05 µM (active)	2.18e-05 µM (active)	0.0415 nM (active)	3.27e-05 µM (active)	0.000102 µM (active)	9.98e-06 µM (active)	3.05e-05 µM (active)	0.0536 nM (active)	0.074 nM (active)	8.57e-05 µM (active)	2.71e-05 µM (active)	5.52e-05 µM (active)	4.98e-05 µM (active)	3.01e-05 µM (active)	2.52e-05 µM (active)	3.53e-05 µM (active)	2.07e-05 µM (active)
CCCCCCC(=O)OC[n+]1ccc2c(C)c3[nH]c4ccc(OC)cc4c3c(C)c2c1	0.308 µM (active)	0.0382 µM (active)	2.42 µM (inactive)	0.329 µM (active)	0.679 µM (active)	550 nM (active)	0.0656 µM (active)	0.883 µM (active)	0.953 µM (active)	0.303 µM (active)	200 nM (active)	454 nM (active)	0.268 µM (active)	0.054 µM (active)	0.83 µM (active)	1.05 µM (active)	0.282 µM (active)	0.0611 µM (active)	0.865 µM (active)	0.0664 µM (active)
Cn1c(=O)nc2n(-c3ccc(Cl)c(C(F)(F)F)c3)c3ccccc3nc-2c1=O	21.9 µM (inactive)	30.2 µM (inactive)	25.1 µM (inactive)	29.6 µM (inactive)	22.2 µM (inactive)		27.7 µM (inactive)		16.6 µM (inactive)	25.1 µM (inactive)			84.1 µM (inactive)	27.2 µM (inactive)	> 77.4 µM (inactive)	74.3 µM (inactive)	40.6 µM (inactive)	35.5 µM (inactive)	51.4 µM (inactive)	24.3 µM (inactive)
Nc1ccc(C(=O)NN2C(=O)C(Cl)C2c2cccc([N+](=O)[O-])c2)cc1 (configuration not stated)	17.3 µM (inactive)	59.7 µM (inactive)	25.3 µM (inactive)	16.4 µM (inactive)	16.4 µM (inactive)		20.1 µM (inactive)		21.1 µM (inactive)	12 µM (inactive)			14.3 µM (inactive)	17.3 µM (inactive)	17.4 µM (inactive)	21.1 µM (inactive)	13.9 µM (inactive)	20.8 µM (inactive)	19.5 µM (inactive)	20.7 µM (inactive)
O=C1C(Cl)C(c2ccc([N+](=O)[O-])cc2)N1n1cnc2ccccc2c1=O (configuration not stated)	73.3 µM (inactive)	17.2 µM (inactive)	> 100 µM (inactive)	32.6 µM (inactive)	5.64 µM (inactive)		61.5 µM (inactive)		70.5 µM (inactive)	49.8 µM (inactive)			75.5 µM (inactive)	43.9 µM (inactive)	71 µM (inactive)	> 100 µM (inactive)	47.8 µM (inactive)	36.9 µM (inactive)	60.1 µM (inactive)	> 100 µM (inactive)
COC(=O)C(C(=O)C(=O)Nc1cccc(OC)c1)c1cnc2ccccc2n1 (configuration not stated)	> 100 µM (inactive)	> 100 µM (inactive)	> 100 µM (inactive)	> 100 µM (inactive)	> 100 µM (inactive)		> 100 µM (inactive)		> 100 µM (inactive)	> 100 µM (inactive)			> 100 µM (inactive)	29.3 µM (inactive)	> 100 µM (inactive)	> 100 µM (inactive)	> 100 µM (inactive)	> 100 µM (inactive)	> 100 µM (inactive)	> 100 µM (inactive)
